Measured values from patent US20260283925A1, “NOVEL PEPTIDE HAVING ACTIVITY OF RETARDING DEGRADATION OF HYALURONIC ACID AND USES THEREOF” (CAREGEN CO., LTD., priority 2023, published 2026).

Legend:
[1] = Delay of hyaluronic acid degradation by reactive oxygen species in BDDE-cross-linked hyaluronic acid filler (Congo Red diffusion, absorbance 500 nm); settings: 37° C., FIG. 6
Experimental: A 1,4-Butanediol diglycidyl ether (BDDE)-cross-linked hyaluronic acid filler with or without the peptide of Preparation Example 1 was prepared, and Congo Red and hyaluronidase (HAdase) as absorbing dyes were prepared. 20 μL of 1 mM Congo Red was added to each 1.5 mL eppendorf tube, and 100 μL each of the peptide-free filler (control filler) and the peptide-containing filler were added on the absorbing dye. Each was treated with 350 μL of 500 mM hydrogen peroxide (H2O2). Each tube was placed in an incubator at 37° C., and 100 μL of the sample supernatant was collected at time points of 1 hour, 3 hours, 6 hours, 24 hours, 48 hours, and 72 hours and transferred to 96-wells. The absorbance was measured at 500 nm using a microplate reader (SpectraMax iD3, Molecular devices, USA). As above, BDDE-cross-linked hyaluronic acid filler samples with or without the peptide were prepared, and the degree of degradation of hyaluronic acid filler by reactive oxygen species was compared depending on the presence or absence of peptide. The degree of degradation of hyaluronic acid filler was measured by the change in absorbance due to the diffusion of dye. That is, the principle that the flowability of the sample increases when hyaluronic acid is degraded by reactive oxygen species and thus the diffusion of the dye increases was utilized.

[2] = test system: NIH3T3 cells (mouse fibroblast); assay: Promotion of collagen and hyaluronic acid (HA) expression, ELISA of culture supernatant; format: cell-based; settings: 50 μM to 200 μM, 72 hours, FIG. 2
Experimental: (§1) NIH3T3 cells (mouse fibroblast) and HaCaT cells (human keratinocyte cell line) were seeded at a density of 1×10^4 cells/well in a 24-well plate and cultured for 24 hours. The cells were washed once with serum-free DMEM medium. Different amounts of peptides were added to 500 μL of serum-free DMEM medium to prepare peptide medium solutions having concentrations of 50 μM, 100 μM, and 200 μM, and the washed cells were treated with the prepared peptide medium solutions. As a positive control, 100 nM […] was used in NIH3T3 cells and 100 nM IGF-1 was used in HaCaT cells. The treated cells were then cultured in a CO2 incubator at 37° C. for 72 hours. The cell culture liquid was collected, centrifuged, and the supernatant was transferred to a tube. The obtained supernatant was subjected to ELISA analysis using the Collagen ELISA kit (Abcam, Cat No.: ab210579, UK) and HA ELISA kit (ECHELON Biosciences, Cat No.: K-1200, USA), respectively.

[3] = test system: HaCaT cells (human keratinocyte cell line); assay: as above; format: cell-based; settings: 50 μM to 200 μM, 72 hours, FIG. 2
Experimental: as §1

[4] = pH stability of peptide (HPLC area); format: physicochemical; settings: 1000 ppm solution titrated to pH 4, pH 7, pH 10, HPLC area relative to pH 7, FIG. 7b
Experimental: The evaluation of pH stability was performed as follows. A diluted solution of the peptide of Preparation Example 1 at a concentration of 1000 ppm was prepared, and the initial pH value of the solution was measured (pH=3.21). 0.5 M NaOH was added so as to titrate the pH of the solution to pH 4, pH 7, and pH 10, respectively. Each sample was filtered through a 0.22 μm filter. The area values were compared based on pH 7 measured by HPLC.

[5] = test system: NIH3T3 cells (mouse fibroblast); assay: Cell proliferation analysis (MTT); format: cell-based; settings: peptide 1.6-1000 μM, 72 hours, FIG. 1
Experimental: (§2) NIH3T3 cells (mouse fibroblast) and HaCaT cells (human keratinocyte cell line) were seeded at a density of 1×10^4 cells/well in a 96-well plate and cultured for 24 hours. The cells were washed once with serum-free DMEM medium. Different amounts of peptides were added to 200 μL of serum-free DMEM medium to prepare peptide medium solutions having concentrations of 1.6 μM, 8 μM, 40 μM, 200 μM, and 1000 μM, and the prepared peptide medium solutions were treated to the washed cells. Then, the treated cells were cultured in a CO2 incubator at 37° C. for 72 hours, washed twice with PBS, and MTT (Sigma, Cat. No.: M2003, USA) solution was dispensed into each well to a final concentration of 0.5 mg/mL. Then, after blocking light, the cells were cultured in a CO2 incubator at 37° C. for 4 hours. The absorbance was measured at 540 nm using a microplate reader (SpectraMax iD3, Molecular devices, USA).

[6] = test system: HaCaT cells (human keratinocyte cell line); assay: Cell proliferation analysis (MTT); format: cell-based; settings: peptide 1.6-1000 μM, 72 hours, FIG. 1
Experimental: as §2

[7] = Thermal stability of peptide (HPLC area); format: physicochemical; settings: 1000 ppm solution, 25° C. and 50° C., 72 hours, FIG. 7a
Experimental: The evaluation of thermal stability was performed as follows. A diluted solution of the peptide of Preparation Example 1 at a concentration of 1000 ppm was prepared, dispensed into 50 mL conical tubes, and placed in an incubator at 25° C. and 50° C. After 72 hours, 1 mL of each sample was filtered through a 0.22 μm filter. The area values were compared at 25° C. based on pH 7 measured by HPLC.

[8] = test system: hyaluronidase from bovine testes; assay: Delay of hyaluronic acid degradation by hyaluronidase in hyaluronic acid solution (viscosity, rheometer); format: biochemical; settings: 1.5 wt % hyaluronic acid in PBS
Experimental: Hyaluronic acid was dissolved in PBS to a concentration of 1.5 wt % and hydrated, and 10 g of this solution was dispensed into each conical tube. Peptide solutions were added to the dispensed hyaluronic acid solutions so that the final peptide concentrations were 0 ppm (no addition), 100 ppm, 1000 ppm, and 5000 ppm, respectively. 2 mL of hyaluronic acid degrading enzyme (hyaluronidase from bovine testes, Hadase, Sigma) was added to each conical tube. Viscosity was measured using a rheometer (single shear stress) by sampling at 0 and 30 minutes to compare the viscosity values according to the peptide concentration. As above, the 1.5 wt % hyaluronic acid solution containing the peptides at each concentration was treated with hyaluronidase, and the enzymatic reaction was maintained for 30 minutes to decompose hyaluronic acid. After the degradation reaction, the viscosity of the hyaluronic acid solution was measured to confirm the degradation delay efficacy.

[9] = Delay of hyaluronic acid degradation by reactive oxygen species in hyaluronic acid solution (viscosity, rheometer); settings: 1.5 wt % hyaluronic acid in PBS, peptide 100, 1000, 5000 ppm, 500 mM H2O2, 60 and 180 minutes, FIG. 5
Experimental: Hyaluronic acid was dissolved in PBS to a concentration of 1.5 wt % and hydrated, and 10 g of this solution was dispensed into each conical tube. Peptide solutions were added to the dispensed hyaluronic acid solutions so that the final peptide concentrations were 0 ppm (no addition), 100 ppm, 1000 ppm, and 5000 ppm, respectively. 2 mL of 500 mM hydrogen peroxide (H2O2) was added to each. Viscosity was measured using a rheometer (single shear stress) by sampling at 0, 30, 60, and 180 minutes to compare the viscosity values according to the peptide concentration. As above, 1.5 wt % hyaluronic acid solutions containing peptides at each concentration were treated with hydrogen peroxide to maintain the degradation reaction by reactive oxygen species for 60 and 180 minutes, thereby degrading hyaluronic acid. After the degradation reaction, the viscosity of each hyaluronic acid solution was measured to confirm the degradation delaying efficacy.

hyaluronidase (HAdase) = assay: Delay of hyaluronic acid degradation by hyaluronidase in BDDE-cross-linked hyaluronic acid filler (Congo Red diffusion, absorbance 500 nm); format: biochemical; settings: 24 hours after treatment with hyaluronidase, 37° C., FIG. 4
Experimental: A 1,4-Butanediol diglycidyl ether (BDDE)-cross-linked hyaluronic acid filler with or without the peptide of Preparation Example 1 was prepared, and Congo Red and hyaluronidase (HAdase) were prepared as absorbing dyes. 20 μL of 1 mM Congo Red was added to a 1.5 mL eppendorf tube, and 100 μL each of the peptide-free filler (control filler) and the peptide-containing filler were added on the absorbing dye. Each was treated with 350 μL of 0.15 mg/mL (108 units) of hyaluronidase. Each tube was placed in an incubator at 37° C., and 100 μL of the sample supernatant was collected at time points of 6 and 24 hours and transferred to a 96-well. The absorbance was measured at 500 nm using a microplate reader (SpectraMax iD3, Molecular Devices, USA). As above, BDDE-cross-linked hyaluronic acid filler samples with or without the peptide were prepared, and the degree of degradation of the hyaluronic acid filler by hyaluronidase was compared depending on the presence or absence of the peptide. The degree of degradation of the hyaluronic acid filler was measured by the change in absorbance according to the diffusion of the dye. That is, the principle, in which the flowability of the sample increases when hyaluronic acid is degraded by the degradation enzyme, thereby increasing the diffusion of the dye, was utilized.

For “KIWNLEPSRNGT (H2N-Lys-Ile-Trp-Asn-Leu-Glu-Pro-Ser-Arg-Asn-Gly-Thr-COOH) [peptide having SEQ ID NO: 1]”, the “improvement of degradation delay versus peptide-free filler” value ([1]; 24 hours after treatment with 500 mM hydrogen peroxide) was at least 50%, the “effect of delaying degradation” value ([1]; treated 48 hours with 500 mM hydrogen peroxide, filler without peptides mostly degraded) was 85% and the collagen expression ([2]; Collagen ELISA) was “significant increase in collagen expression”. For the same sequence, the “hyaluronic acid (HA) expression” value ([2]; HA ELISA) was “increase in hyaluronic acid (HA) expression”, the collagen expression ([3]; Collagen ELISA) was “significant increase in collagen expression” and the “hyaluronic acid (HA) expression” value ([3]; HA ELISA) was “increase in hyaluronic acid (HA) expression”. For the same sequence, the pH stability [4] was “stable even at a high temperature of 50 °C and in the range of pH 4 to pH 10”, the “effect of promoting cell proliferation” value [5] was “significant effect of promoting cell proliferation” and the “effect of promoting cell proliferation” value [6] was “significant effect of promoting cell proliferation”. For the same sequence, the thermal stability [7] was “stable even at a high temperature of 50 °C”, the “difference in the degradation delay efficacy of 1000 ppm and 5000 ppm” value ([8]; hyaluronidase 30 minutes) was “not significant” and the “degradation delay efficacy (viscosity of hyaluronic acid solution after hyaluronidase)” value ([8]; peptide 100, 1000, 5000 ppm, 30 minutes, FIG. 3) was “degradation of hyaluronic acid was delayed as the concentration of the peptide increased”. The “degradation delaying efficacy (viscosity of hyaluronic acid solution after hydrogen peroxide)” value [9] was “degradation of hyaluronic acid was delayed as the concentration of peptide increased” and the “improvement of delay of degradation versus peptide-free filler” value (hyaluronidase (HAdase)) was at least 15%.
